Measured values as given in ChEMBL document CHEMBL5505992, “Novel membrane-targeting isoxanthohumol-amine conjugates for combating methicillin-resistant Staphylococcus aureus (MRSA) infections” (Eur J Med Chem, 2024).
Activity calls are given as the source filed them. The calls are words filed in the database; no cut-off is given here.

Assays:
[1] = test system: Staphylococcus aureus; assay: Antibacterial activity against methicillin-resistant Staphylococcus aureus in presence of cardiolipin; format: functional, organism-based
[2] = test system: Staphylococcus aureus; assay: Antibacterial activity against methicillin-resistant Staphylococcus aureus clinical isolate MRSA-21 measured after 16 to 18 hrs by CLSI method; format: functional; conditions: time 16-18 hrs
[3] = test system: Staphylococcus aureus; assay: Antibacterial activity against Staphylococcus aureus ATCC 29213 measured after 20 passages for 16 to 18 hrs; format: functional; conditions: time 16-18 hrs
[4] = test system: Cell membrane; assay: Disruption of cell membrane in methicillin-resistant Staphylococcus aureus clinical isolate MRSA-16 assessed as increase in intracellular DNA leakage incubated for 4 hrs by microspectrophotometer analysis; format: cell membranes
[5] = test system: Staphylococcus aureus; assay: Antibacterial activity against methicillin-resistant Staphylococcus aureus clinical isolate MRSA-13 measured after 16 to 18 hrs by CLSI method; format: functional; conditions: time 16-18 hrs
[6] = test system: Cell membrane; assay: Induction of cell membrane permeability in methicillin-resistant Staphylococcus aureus clinical isolate MRSA-16 assessed as increase in damaged cells (Q2 region) at 16 ug/ml incubated for 2 hrs by SYTO 9 and PI staining based flow cytometry analysis (reference value: 0.91%); format: cell membranes; conditions: dose 16.0 µg/ml
[7] = Toxicity in Kunming mouse assessed as survival rate at 80 mg/kg, sc measured after 24 hrs relative to control; format: organism-based; conditions: in vivo
[8] = Toxicity in Kunming mouse assessed as histopathological abnormalities in heart at 4 to 8 mg/kg, sc measured after 24 hrs by H and E staining based analysis; format: organism-based; conditions: in vivo, dose 4-8 mg/kg
[9] = Cytotoxicity against human L02 cells assessed as cell viability at <=16 ug/ml by CCK-8 method relative to control; format: toxicity, cell-based; conditions: up to 16 µg/mL, read-out: Activity
[10] = test system: Staphylococcus aureus; assay: Antibacterial activity against methicillin-resistant Staphylococcus aureus infected in Kunming mouse skin infection model assessed as reduction in number of bacterial cells at 4 to 8 mg/kg,sc measured after 24 hrs; format: functional, organism-based; conditions: dose 4-8 mg/kg
[11] = Toxicity in Kunming mouse assessed as effect on lung at 10 mg/kg, sc measured after 24 hrs by H and E staining based analysis; format: organism-based; conditions: in vivo
[12] = Selectivity index, ratio of HC50 for hemolytic activity in sheep erythrocytes to MIC for antibacterial activity against Staphylococcus aureus ATCC 29213; format: toxicity, cell-based; conditions: read-out: Selectivity Index
[13] = test system: Staphylococcus aureus; assay: Antibacterial activity against methicillin-resistant Staphylococcus aureus clinical isolate MRSA-14 measured after 16 to 18 hrs by CLSI method; format: functional; conditions: time 16-18 hrs
[14] = Toxicity in Kunming mouse assessed as animal death at 5 to 10 mg/kg, sc measured after 24 hrs; format: organism-based; conditions: in vivo, dose 5-10 mg/kg
[15] = test system: Cell membrane; assay: Induction of cell membrane permeability in methicillin-resistant Staphylococcus aureus clinical isolate MRSA-16 assessed as increase in damaged cells (Q2 region) at 32 ug/ml incubated for 2 hrs by SYTO 9 and PI staining based flow cytometry analysis (reference value: 0.91%); format: cell membranes; conditions: dose 32.0 µg/ml
[16] = test system: Cell membrane; assay: Induction of cell membrane permeability in methicillin-resistant Staphylococcus aureus clinical isolate MRSA-16 assessed as increase in damaged cells (Q2 region) at 8 ug/ml incubated for 2 hrs by SYTO 9 and PI staining based flow cytometry analysis (reference value: 0.91%); format: cell membranes; conditions: dose 8.0 µg/ml
[17] = test system: Staphylococcus aureus; assay: Antibacterial activity against methicillin-resistant Staphylococcus aureus clinical isolate MRSA-17 measured after 16 to 18 hrs by CLSI method; format: functional; conditions: time 16-18 hrs
[18] = Toxicity in Kunming mouse assessed as effect on heart at 10 mg/kg, sc measured after 24 hrs by H and E staining based analysis; format: organism-based; conditions: in vivo
[19] = test system: Cell membrane; assay: Induction of cell membrane depolarization in methicillin-resistant Staphylococcus aureus clinical isolate MRSA-16 assessed as increase in fluorescence intensity measured after 10 mins by DISC3(5) staining based analysis; format: cell membranes; conditions: dose 8-32 µg/ml
[20] = test system: Cell membrane; assay: Induction of cell membrane permeability in methicillin-resistant Staphylococcus aureus clinical isolate MRSA-16 assessed as decrease in intact cells (Q3 region) at 64 ug/ml incubated for 2 hrs by SYTO 9 and PI staining based flow cytometry analysis (reference value: 99.07%); format: cell membranes; set-up: scale not given: the % may be the effect or the level left; conditions: dose 64.0 µg/ml
[21] = test system: Staphylococcus aureus; assay: Antibacterial activity against methicillin-resistant Staphylococcus aureus infected in Kunming mouse skin infection model assessed as smooth dorsal skin at 8 mg/kg,sc measured after 24 hrs; format: functional, organism-based
[22] = test system: Staphylococcus aureus; assay: Antibacterial activity against Staphylococcus aureus ATCC 29213 at sub-inhibitory concentration measured after 20 passages for 16 to 18 hrs; format: functional, organism-based; conditions: time 16-18 hrs
[23] = test system: Staphylococcus aureus; assay: Antibacterial activity against methicillin-resistant Staphylococcus aureus clinical isolate MRSA-11 measured after 16 to 18 hrs by CLSI method; format: functional; conditions: time 16-18 hrs
[24] = test system: Staphylococcus aureus; assay: Antibacterial activity against methicillin-resistant Staphylococcus aureus infected in Kunming mouse skin infection model assessed as effect on skin abscesses at 4 mg/kg,sc measured after 24 hrs; format: functional, organism-based
[25] = test system: Staphylococcus aureus; assay: Bactericidal activity against Staphylococcus aureus ATCC 29213 assessed as bacterial killing at 8 times MIC measured within 0.5 to 1 hrs by time kill assay relative to control; format: functional; conditions: time 0.5-1 hrs
[26] = Toxicity in Kunming mouse assessed as histopathological abnormalities in spleen at 4 to 8 mg/kg, sc measured after 24 hrs by H and E staining based analysis; format: organism-based; conditions: in vivo, dose 4-8 mg/kg
[27] = test system: Cell membrane; assay: Induction of cell membrane permeability in methicillin-resistant Staphylococcus aureus clinical isolate MRSA-16 assessed as dead cells (Q1 region) at 32 ug/ml incubated for 2 hrs by SYTO 9 and PI staining based flow cytometry analysis (reference value: 0.00%); format: cell membranes; conditions: dose 32.0 µg/ml
[28] = test system: Staphylococcus aureus; assay: Antibacterial activity against Staphylococcus aureus ATCC 29213 measured after 16 to 18 hrs by CLSI method; format: functional; conditions: time 16-18 hrs
[29] = Toxicity in Kunming mouse assessed as histopathological abnormalities in heart at 10 mg/kg, sc measured after 24 hrs by H and E staining based analysis; format: organism-based; conditions: in vivo
[30] = test system: Staphylococcus aureus; assay: Bactericidal activity against Staphylococcus aureus ATCC 29213 assessed as bacterial killing measured upto 8 hrs by time kill assay; format: functional, organism-based
[31] = Toxicity in Kunming mouse assessed as histopathological abnormalities in skin at 10 mg/kg, sc measured after 24 hrs by H and E staining based analysis; format: organism-based; conditions: in vivo
[32] = Toxicity in Kunming mouse assessed as adverse effect at 5 to 10 mg/kg, sc measured after 24 hrs; format: organism-based; conditions: in vivo, dose 5-10 mg/kg
[33] = Toxicity in Kunming mouse assessed as redness in back of skin at 20 mg/kg, sc measured after 24 hrs; format: organism-based; conditions: in vivo
[34] = test system: Staphylococcus aureus; assay: Antibacterial activity against methicillin-resistant Staphylococcus aureus clinical isolate MRSA-16 measured after 16 to 18 hrs by CLSI method; format: functional; conditions: time 16-18 hrs
[35] = test system: Staphylococcus aureus; assay: Antibacterial activity against methicillin-resistant Staphylococcus aureus clinical isolate MRSA-22 measured after 16 to 18 hrs by CLSI method; format: functional; conditions: time 16-18 hrs
[36] = test system: Staphylococcus aureus; assay: Antibacterial activity against methicillin-resistant Staphylococcus aureus in presence of phosphatidylethanolamine; format: functional, organism-based
[37] = test system: Cell membrane; assay: Induction of cell membrane permeability in methicillin-resistant Staphylococcus aureus clinical isolate MRSA-16 assessed as increase in damaged cells (Q2 region) at 4 ug/ml incubated for 2 hrs by SYTO 9 and PI staining based flow cytometry analysis (reference value: 0.91%); format: cell membranes; conditions: dose 4.0 µg/ml
[38] = test system: Staphylococcus aureus; assay: Antibacterial activity against methicillin-resistant Staphylococcus aureus clinical isolate MRSA-23 measured after 16 to 18 hrs by CLSI method; format: functional; conditions: time 16-18 hrs

Compound: CCCC[N+](C)(CCCC)CCCCCOc1ccc(C2CC(=O)c3c(OC)cc(OCCCCC[N+](C)(CCCC)CCCC)c(CC=C(C)C)c3O2)cc1.[I-].[I-] (stereo not drawn)
- Activity [1]: Active
- MIC [2]: 0.25 µg/mL
- MIC [3]: 1 µg/mL
- Activity [4]: Active
- MIC [5]: 0.25 µg/mL
- Activity [6]: 69.9%
- survival at 24 h [7]: 40%
- Activity [8]: Non-Toxic
- viability [9]: 100%
- Activity [10]: Active
- Activity [11]: Non-Toxic
- selectivity ratio [12]: > 1280
- MIC [13]: 0.25 µg/mL
- Activity [14]: Non-Toxic
- Activity [15]: 0.79%
- Activity [16]: 57.4%
- MIC [17]: 0.25 µg/mL
- Activity [18]: Non-Toxic
- Activity [19]: Dose-Dependent Effect
- Activity [20]: 0%
- Activity [21]: Active
- Activity [22]: inactive
- MIC [23]: 0.5 µg/mL
- Activity [24]: Active
- Activity [25]: 100%
- Activity [26]: Non-Toxic
- Activity [27]: 99.2%
- MIC [28]: 1 µg/mL
- Activity [29]: Non-Toxic
- Activity [30]: Dose-Dependent Effect
- Activity [31]: Non-Toxic
- Activity [32]: Non-Toxic
- Activity [33]: Toxic
- MIC [34]: 0.25 µg/mL
- MIC [35]: 1 µg/mL
- Activity [36]: Active
- Activity [37]: 38.6%
- MIC [38]: 0.25 µg/mL
